In patent publication US20260049076A1, “Tertiary Amine Substituted Bicyclic Compounds Useful as T Cell Activators” (BRISTOL-MYERS SQUIBB COMPANY, priority 2022, published 2026):

Assays:
[1] = target: T1, human DGKζ (Homo sapiens, UniProt Q13574); experiment: In vitro DGK inhibition assay, DGKζ liposome (LIPGLO) assay; format: biochemical; details: read-out: Enzyme Inhibition DGKzeta IC50
T1 construct: TVMV protease cleavage site (C); Hexa-His (C); made in house; host or cells: Sf9 insect cells (baculovirus)
T1 sequence (Q13574 with tags, fused parts or gaps isoform Q13574-4): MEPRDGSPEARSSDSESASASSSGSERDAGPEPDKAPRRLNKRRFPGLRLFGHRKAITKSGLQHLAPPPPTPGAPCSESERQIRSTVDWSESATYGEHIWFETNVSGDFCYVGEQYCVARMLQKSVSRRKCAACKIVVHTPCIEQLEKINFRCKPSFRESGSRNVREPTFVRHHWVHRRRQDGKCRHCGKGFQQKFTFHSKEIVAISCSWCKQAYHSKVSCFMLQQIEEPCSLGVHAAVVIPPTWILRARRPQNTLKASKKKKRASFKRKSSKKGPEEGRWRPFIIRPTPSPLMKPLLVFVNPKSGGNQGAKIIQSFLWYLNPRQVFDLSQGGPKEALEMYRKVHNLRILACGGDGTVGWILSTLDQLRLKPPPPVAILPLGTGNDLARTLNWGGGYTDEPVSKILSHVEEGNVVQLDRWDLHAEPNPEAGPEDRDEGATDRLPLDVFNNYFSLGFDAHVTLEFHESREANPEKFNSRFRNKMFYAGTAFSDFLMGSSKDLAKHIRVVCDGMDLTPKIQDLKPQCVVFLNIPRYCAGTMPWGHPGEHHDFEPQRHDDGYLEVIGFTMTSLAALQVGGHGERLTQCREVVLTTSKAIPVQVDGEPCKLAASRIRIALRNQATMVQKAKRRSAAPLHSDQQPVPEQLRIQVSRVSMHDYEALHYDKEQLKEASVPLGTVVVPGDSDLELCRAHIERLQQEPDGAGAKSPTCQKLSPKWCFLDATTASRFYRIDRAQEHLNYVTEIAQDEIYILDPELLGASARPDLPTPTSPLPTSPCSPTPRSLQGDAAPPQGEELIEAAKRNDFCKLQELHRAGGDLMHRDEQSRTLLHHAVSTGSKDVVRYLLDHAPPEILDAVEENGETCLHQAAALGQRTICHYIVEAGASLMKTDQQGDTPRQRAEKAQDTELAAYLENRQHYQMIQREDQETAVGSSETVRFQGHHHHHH
Procedure: (§1) The DGKα and DGKζ reactions were performed using either extruded liposome (DGKα and DGKζ LIPGLO assays) or detergent/lipid micelle substrate (DGKα and DGKζ assays). The reactions were carried out in 50 mM MOPS pH 7.5, 100 mM NaCl, 10 mM MgCl2, 1 μM CaCl2, and 1 mM DTT (assay buffer). The reactions using a detergent/lipid micelle substrate also contained 50 mM octyl B-D-glucopyranoside. The lipid substrate concentrations were 11 mM PS and 1 mM DAG for the detergent/lipid micelle reactions. The lipid substrate concentrations were 2 mM PS, 0.25 mM DAG, and 2.75 mM PC for the extruded liposome reactions (5 mM total lipid). The reactions were carried out in 150 μM ATP The enzyme concentrations for the DGKα and DGKζ were 5 nM
(§2) The compound inhibition studies were carried out as follows: 25 nL (ADPGLO assay) or 50 nL (LIPGLO assay) droplets of each test compound (top concentration 10 mM with 11 point, 3-fold dilution series for each compound) solubilized in DMSO were transferred to wells of a white 1536 well plate (Corning 3725). A 5 mL enzyme/lipid substrate solution at 2× final reaction concentration was prepared by combining 2.5 mL 4× enzyme solution (20 nM DGKα, or DGKζ (prepared as described below) in assay buffer) and 2.5 mL of either 4× liposome or 4× detergent/lipid micelle solution (compositions described below) and incubated at room temperature for 10 minutes. Next, 1 μL 2× enzyme/lipid substrate solution was added to wells containing the test compound and reactions were initiated with the addition of 1 μL 300 uM ATP. The reactions were allowed to proceed for 2 hr (ADPGLO assay) or 1 hr (LIPGLO assay), after which 2 μL Glo Reagent (Promega V9101) was added and incubated for 40 minutes. Next, 4 μL Kinase Detection Reagent was added and incubated for 30 minutes. Luminescence was recorded using an EnVision microplate reader. […] The compounds were evaluated at 11 concentrations to determine IC50.
(§3) The lipid composition was 5 mol % DAG (Avanti 8008110), 40 mol % PS (Avanti 840035P), and 55 mol % PC (Avanti 850457) at a total lipid concentration of 7-8 mg/mL for the liposome solution. The PC, DAG, and PS were dissolved in chloroform, combined, and dried in vacuo to a thin film. The lipids were hydrated to 20 mM in 50 mM MOPS pH 7.5, 100 mM NaCl, 5 mM MgCl2, and were freeze-thawed five times. The lipid suspension was extruded through a 100 nm polycarbonate filter 10-12 times. […] The liposome preparation was stored at 4° C. for as long as four weeks.
as §3, with “15.2” for “7-8”, “the 4×” for “the”, “eleven” for “10-12”
(§4) Human DGK-alpha-TVMV-His-pFBgate and human DGK-zeta-transcript variant-2-TVMV-His-pFBgate baculovirus samples were generated using the Bac-to-Bac baculovirus expression system (Invitrogen) according to the manufacturer's protocol. […] Baculovirus amplification was achieved using infected Sf9 cells at 1:1500 virus/cell ratios, and grown for 65 hours at 27° C. post-transfection.
(§5) The expression scale up for each protein was carried out in the Cellbag 50L WAVE-Bioreactor System 20/50 from GE Healthcare Bioscience. 12 L of 2×10^6 cells/mL Sf9 cells (Expression System, Davis, CA) grown in ESF921 insect medium (Expression System) were infected with virus stock at 1:200 virus/cell ratios, and grown for 66-68 hours at 27° C. post-infection.

[2] = target: T2, human DGKα (Homo sapiens, UniProt P23743); experiment: In vitro DGK inhibition assay, DGKα liposome (LIPGLO) assay; format: biochemical; details: read-out: Enzyme Inhibition DGKalpha IC50
T2 construct: TVMV protease cleavage site (C); Hexa-His (C); made in house; host or cells: Sf9 insect cells (baculovirus)
T2 sequence (P23743 with tags, fused parts or gaps): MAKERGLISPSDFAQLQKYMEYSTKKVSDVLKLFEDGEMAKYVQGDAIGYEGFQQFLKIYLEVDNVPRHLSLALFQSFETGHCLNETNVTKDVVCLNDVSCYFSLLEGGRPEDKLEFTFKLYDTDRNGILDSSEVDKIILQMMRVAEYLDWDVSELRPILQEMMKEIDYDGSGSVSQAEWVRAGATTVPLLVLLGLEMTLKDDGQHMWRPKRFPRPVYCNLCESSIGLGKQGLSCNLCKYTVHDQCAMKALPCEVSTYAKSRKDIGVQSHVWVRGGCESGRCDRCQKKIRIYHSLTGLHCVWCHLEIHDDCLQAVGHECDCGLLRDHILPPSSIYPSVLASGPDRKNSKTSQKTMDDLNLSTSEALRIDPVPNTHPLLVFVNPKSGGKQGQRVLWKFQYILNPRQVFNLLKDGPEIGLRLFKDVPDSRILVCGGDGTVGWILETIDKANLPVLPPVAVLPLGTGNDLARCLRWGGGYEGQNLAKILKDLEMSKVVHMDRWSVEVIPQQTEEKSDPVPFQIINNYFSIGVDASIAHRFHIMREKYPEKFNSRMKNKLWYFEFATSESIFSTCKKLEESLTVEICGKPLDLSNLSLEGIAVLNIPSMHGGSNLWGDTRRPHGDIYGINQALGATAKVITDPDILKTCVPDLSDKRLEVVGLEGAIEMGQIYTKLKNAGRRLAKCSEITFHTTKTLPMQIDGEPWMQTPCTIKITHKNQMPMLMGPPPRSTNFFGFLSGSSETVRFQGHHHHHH
Procedure: as §1, §2, §3
as §3, with “15.2” for “7-8”, “the 4×” for “the”, “eleven” for “10-12”
as §4, §5

Row | Structure (SMILES) | IC50 [1] | IC50 [2]
1 | CC(C1CC1)N(C)c1c(C#N)c(=O)n(C)c2ccc(Br)nc12 (racemic) [Example 9, 6-bromo-4-((1-cyclopropylethyl)(methyl)amino)-1-methyl-2-oxo-1,2-dihydro-1,5-naphthyridine-3-carbonitrile] | 7.1 µM | –
2 | CC(C1CC1)N(C)c1cc(=O)n(C)c2ccc(C#N)nc12 (racemic) [Example 32, 8-((1-cyclopropylethyl)(methyl)amino)-5-methyl-6-oxo-5,6-dihydro-1,5-naphthyridine-2-carbonitrile] | 90 µM | 1.4 µM
3 | COc1ccc(-c2cccc(N(C)c3nc(=O)n(C)c4ccc(C#N)nc34)c2)cc1 [Example 2, 4-((4′-methoxy-[1,1′-biphenyl]-3-yl)(methyl)amino)-1-methyl-2-oxo-1,2-dihydropyrido[3,2-d]pyrimidine-6-carbonitrile] | > 38 µM | > 38 µM
4 | CN(c1cccc(-c2ccc(C3CC3)cc2)c1)c1cc(=O)n(C)c2ccc(C#N)nc12 [Example 4, 8-((4′-cyclopropyl-[1,1′-biphenyl]-3-yl)(methyl)amino)-5-methyl-6-oxo-5,6-dihydro-1,5-naphthyridine-2-carbonitrile] | > 38 µM | 0.049 µM
5 | COc1ccc(-c2cccc(N(C)c3cc(=O)n(C)c4ccc(C#N)nc34)c2)cc1 [Example 5, 8-((4′-methoxy-[1,1′-biphenyl]-3-yl)(methyl)amino)-5-methyl-6-oxo-5,6-dihydro-1,5-naphthyridine-2-carbonitrile] | 32 µM | 0.18 µM
6 | COc1ccc2c(n1)c(N(C)C1CCCCC1)c(C#N)c(=O)n2C [Example 12, 4-[cyclohexyl(methyl)amino]-6-methoxy-1-methyl-2-oxo-1,2-dihydro-1,5-naphthyridine-3-carbonitrile] | 84 µM | –
7 | Cc1ccc2c(n1)c(N(C)C1CCCCC1)c(C#N)c(=O)n2C [Example 13, 4-[cyclohexyl(methyl)amino]-1,6-dimethyl-2-oxo-1,2-dihydro-1,5-naphthyridine-3-carbonitrile] | 2.7 µM | 0.29 µM
8 | Cc1ccc2c(n1)c(N(C)C(C)C1CC1)c(C#N)c(=O)n2C (stereo not shown) [Example 14, 4-[(1-cyclopropylethyl)(methyl)amino]-1,6-dimethyl-2-oxo-1,2-dihydro-1,5-naphthyridine-3-carbonitrile] | 29 µM | –
9 | C#CCn1c(=O)c(C#N)c(N(C)C2CCCCC2)c2nc(C#N)ccc21 [Example 17, 8-[cyclohexyl(methyl)amino]-6-oxo-5-(prop-2-yn-1-yl)-5,6-dihydro-1,5-naphthyridine-2,7-dicarbonitrile] | 3.6 µM | 2 µM
10 | Cc1ccc(N(C)c2cc(=O)n(C)c3ccc(C#N)nc23)cc1 [Example 20, 5-methyl-8-(methyl(p-tolyl)amino)-6-oxo-5,6-dihydro-1,5-naphthyridine-2-carbonitrile] | 36 µM | 0.73 µM
11 | CN(c1cccc(C#N)c1)c1cc(=O)n(C)c2ccc(C#N)nc12 [Example 21, 8-((3-cyanophenyl)(methyl)amino)-5-methyl-6-oxo-5,6-dihydro-1,5-naphthyridine-2-carbonitrile] | > 125 µM | –
12 | Cc1cccc(N(C)c2cc(=O)n(C)c3ccc(C#N)nc23)c1 [Example 22, 5-methyl-8-(methyl(m-tolyl)amino)-6-oxo-5,6-dihydro-1,5-naphthyridine-2-carbonitrile] | 4.7 µM | 1.3 µM
13 | COc1ccc(N(C)c2cc(=O)n(C)c3ccc(C#N)nc23)cc1 [Example 24, 8-((4-methoxyphenyl)(methyl)amino)-5-methyl-6-oxo-5,6-dihydro-1,5-naphthyridine-2-carbonitrile] | 3.2 µM | 0.65 µM
14 | Cn1c(=O)cc(N(CC2CC2)c2ccc(C3CC3)cn2)c2nc(C#N)ccc21 [Example 46, 8-((cyclopropylmethyl)(5-cyclopropylpyridin-2-yl)amino)-5-methyl-6-oxo-5,6-dihydro-1,5-naphthyridine-2-carbonitrile] | 0.99 µM | –

Next, values leading:

Row | IC50 [1] | IC50 [2] | Structure (SMILES)
15 | > 38 µM | 1.8 µM | CN(c1cccc(-c2ccc(OC(F)(F)F)cc2)c1)c1nc(=O)n(C)c2ccc(C#N)nc12 [Example 3, 1-methyl-4-(methyl(4′-(trifluoromethoxy)-[1,1′-biphenyl]-3-yl)amino)-2-oxo-1,2-dihydropyrido[3,2-d]pyrimidine-6-carbonitrile]
16 | 21 µM | – | CN(c1c(C#N)c(=O)n(C)c2ccc(Br)nc12)C1CCCCC1 [Example 7, 6-bromo-4-[cyclohexyl(methyl)amino]-1-methyl-2-oxo-1,2-dihydro-1,5-naphthyridine-3-carbonitrile]
17 | 31 µM | – | CC1CCC(N(C)c2c(C#N)c(=O)n(C)c3ccc(Br)nc23)CC1 (stereo not shown) [Example 8, 6-bromo-1-methyl-4-(methyl(4-methylcyclohexyl)amino)-2-oxo-1,2-dihydro-1,5-naphthyridine-3-carbonitrile]
18 | 4 µM | – | CN(c1c(C#N)c(=O)n(C)c2ccc(C#N)nc12)C1CCCCC1 [Example 10, 8-[cyclohexyl(methyl)amino]-5-methyl-6-oxo-5,6-dihydro-1,5-naphthyridine-2,7-dicarbonitrile]
19 | 7.3 µM | – | CC(C1CC1)N(C)c1c(C#N)c(=O)n(C)c2ccc(C#N)nc12 (stereo not shown) [Example 11, 8-[(1-cyclopropylethyl)(methyl)amino]-5-methyl-6-oxo-5,6-dihydro-1,5-naphthyridine-2,7-dicarbonitrile]
20 | 7.1 µM | – | CC(C1CC1)N(C)c1c(C#N)c(=O)n(C)c2ccc(CC#N)nc12 (stereo not shown) [Example 15, 6-(cyanomethyl)-4-[(1-cyclopropylethyl)(methyl)amino]-1-methyl-2-oxo-1,2-dihydro-1,5-naphthyridine-3-carbonitrile]
21 | 12 µM | – | C#CCn1c(=O)c(C#N)c(N(C)C2CCCCC2)c2nc(Br)ccc21 [Example 16, 6-bromo-4-[cyclohexyl(methyl)amino]-2-oxo-1-(prop-2-yn-1-yl)-1,2-dihydro-1,5-naphthyridine-3-carbonitrile]
22 | 12 µM | – | CN(c1cc(=O)n(C)c2ccc(C#N)nc12)C1CCCCC1 [Example 19, 8-(cyclohexyl(methyl)amino)-5-methyl-6-oxo-5,6-dihydro-1,5-naphthyridine-2-carbonitrile]
23 | 4.9 µM | 0.11 µM | CN(c1ccc(F)cc1)c1cc(=O)n(C)c2ccc(C#N)nc12 [Example 23, 8-((4-fluorophenyl)(methyl)amino)-5-methyl-6-oxo-5,6-dihydro-1,5-naphthyridine-2-carbonitrile]
24 | 37 µM | 0.96 µM | Cc1ccccc1N(C)c1cc(=O)n(C)c2ccc(C#N)nc12 [Example 26, 5-methyl-8-(methyl(o-tolyl)amino)-6-oxo-5,6-dihydro-1,5-naphthyridine-2-carbonitrile]
25 | 120 µM | 0.44 µM | CN(c1ccc(F)c(F)c1)c1cc(=O)n(C)c2ccc(C#N)nc12 [Example 28, 8-((3,4-difluorophenyl)(methyl)amino)-5-methyl-6-oxo-5,6-dihydro-1,5-naphthyridine-2-carbonitrile]
26 | 17 µM | 0.45 µM | CN(c1ccc(Cl)cc1)c1cc(=O)n(C)c2ccc(C#N)nc12 [Example 29, 8-((4-chlorophenyl)(methyl)amino)-5-methyl-6-oxo-5,6-dihydro-1,5-naphthyridine-2-carbonitrile]
